This assay relates to cancer cells. The experiment in a line: MTS assay: inhibition of cell growth (formazan absorbance at 492 nm after 72 hours with test compound). The assay is classed as cell-based. To be noted: inhibition class. In outline: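 DMEM with 1% FBS; cells seeded at 3000/well and grown 18 h at 37 °C, then exposed to compound for 72 h and to MTS/PMS for 4 h. IC50 is the concentration giving a 50% absorbance drop; grades are % inhibition bands.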
On the technique in general: Formazan colour is commonly taken as a measure of viable cells.

The mark [1] stands for this setting: Homo sapiens, DLD-1 cells, read-out: DLD-1, MTS 72 hours at 10 uM.
The mark [2] stands for this setting: Homo sapiens, KATO III cells, read-out: KATO III, MTS 72 hours at 10 uM.
[3] abbreviates: Homo sapiens, MDA-MB-231 cells, read-out: MDA-MB-231, MTS 72 hours at 10 uM.
Where [4] appears, read: Homo sapiens, NCI-H1299 cells, read-out: NCI-H1299, MTS 72 hours at 10 uM.
Setting [5] is: Homo sapiens, PC-3 cells, read-out: PC-3, MTS 72 hours at 10 uM.
The mark [6] stands for this setting: PACA-2 cells, read-out: PACA-2, MTS 72 hours at 10 uM.

Where two headings read alike, the source gives them in different places. Where only a bound is given, the exact number is not on record here.

In the case of `c1ccc(CN2CCc3n[nH]c4nc(NCc5ccc(-c6ccccc6)cc5)nc2c34)cc1` [Compound 79, 6-benzyl-N-(biphenyl-4-ylmethyl)-2,6,7,8-tetrahydro-1,2,3,5,6-pentaazaacenaphthylen-4-amine], the inhibition at 10 µM by setting is: under setting [1], over 79%; under setting [2], 50 to 79%; under setting [3], 50 to 79%; under setting [4], over 79%; under setting [5], under 50%; under setting [6], under 50%.
As to `c1ccc(N2CCc3n[nH]c4nc(NC5CCCCC5)nc2c34)cc1` [Compound 211, N-cyclohexyl-6-phenyl-2,6,7,8-tetrahydro-1,2,3,5,6-pentaazaacenaphthylen-4-amine], the inhibition at 10 µM was under 50% under setting [1]; under 50% under setting [2]; under 50% under setting [3]; under 50% under setting [4]; under 50% under setting [5]; under 50% under setting [6].
As for `Clc1ccccc1CNc1nc2c3c(n[nH]c3n1)CCN2c1ccccc1` [Compound 209, N-(2-chlorobenzyl)-6-phenyl-2,6,7,8-tetrahydro-1,2,3,5,6-pentaazaacenaphthylen-4-amine], the inhibition at 10 µM was under 50% under setting [1]; 50 to 79% under setting [2]; under 50% under setting [3]; under 50% under setting [4]; under 50% under setting [5]; under 50% under setting [6].
Turning to `c1ccc(CNc2nc3c4c(n[nH]c4n2)CCN3c2ccccc2)cc1` [Compound 208, N-benzyl-6-phenyl-2,6,7,8-tetrahydro-1,2,3,5,6-pentaazaacenaphthylen-4-amine], the inhibition at 10 µM is under 50% under setting [1]; under 50% under setting [2]; under 50% under setting [3]; under 50% under setting [4]; under 50% under setting [5]; under 50% under setting [6].
In the case of `c1ccc(CC2CCN(c3nc4c5c(n[nH]c5n3)CCN4Cc3ccccc3)CC2)cc1` [Compound 45, 6-benzyl-4-(4-benzylpiperidin-1-yl)-2,6,7,8-tetrahydro-1,2,3,5,6-pentaazaacenaphthylene], the inhibition at 10 µM under setting [1] is under 50%; the inhibition at 10 µM under setting [2] was under 50%; the inhibition at 10 µM under setting [3] is under 50%; the inhibition at 10 µM under setting [4] was under 50%; the inhibition at 10 µM under setting [5] was under 50%; the inhibition at 10 µM under setting [6] was under 50%.
`O=C(NCc1ccccc1)C1CN(Cc2ccccc2)c2nc(NCc3ccco3)nc3[nH]nc1c23` (stereo not drawn) [Compound 225, N,6-dibenzyl-4-[(furan-2-ylmethyl)amino]-2,6,7,8-tetrahydro-1,2,3,5,6-pentaazaacenaphthylene-8-carboxamide]: the inhibition at 10 µM is, setting by setting: under setting [1], under 50%; under setting [2], under 50%; under setting [3], under 50%; under setting [4], under 50%; under setting [5], under 50%; under setting [6], under 50%.
Regarding `CC(=O)NCCNc1nc2c3c(n[nH]c3n1)CCN2Cc1ccccc1` [Compound 68, N-{2-[(6-benzyl-2,6,7,8-tetrahydro-1,2,3,5,6-pentaazaacenaphthylen-4-yl)amino]ethyl}acetamide], the inhibition at 10 µM was under 50% under setting [1]; under 50% under setting [2]; under 50% under setting [3]; under 50% under setting [4]; under 50% under setting [5]; under 50% under setting [6].
In the case of `Fc1ccccc1CCNc1nc2c3c(n[nH]c3n1)CCN2Cc1ccccc1` [Compound 22, 6-benzyl-N-[2-(2-fluorophenyl)ethyl]-2,6,7,8-tetrahydro-1,2,3,5,6-pentaazaacenaphthylen-4-amine], the inhibition at 10 µM under setting [1] was under 50%; the inhibition at 10 µM under setting [2] was under 50%; the inhibition at 10 µM under setting [3] is under 50%; the inhibition at 10 µM under setting [4] was under 50%; the inhibition at 10 µM under setting [5] was under 50%; the inhibition at 10 µM under setting [6] was under 50%.
Consider `COc1ccc(CN2CCCc3n[nH]c4nc(NCc5ccccc5Cl)nc2c34)cc1` [Compound 250, N-(2-chlorobenzyl)-6-(4-methoxybenzyl)-6,7,8,9-tetrahydro-2H-1,2,3,5,6-pentaazabenzo[cd]azulen-4-amine], for which the inhibition at 10 µM by setting is: under setting [1], 50 to 79%; under setting [2], over 79%; under setting [3], 50 to 79%; under setting [4], under 50%; under setting [5], over 79%; under setting [6], over 79%.
For `COc1ccccc1CCNc1nc2c3c(n[nH]c3n1)CCN2Cc1ccccc1` [Compound 48, 6-benzyl-N-[2-(2-methoxyphenyl)ethyl]-2,6,7,8-tetrahydro-1,2,3,5,6-pentaazaacenaphthylen-4-amine], the inhibition at 10 µM was under 50% under setting [1]; under 50% under setting [2]; 50 to 79% under setting [3]; under 50% under setting [4]; under 50% under setting [5]; under 50% under setting [6].
Take `c1ccc(CN2CCc3n[nH]c4nc(N5CCc6ccccc6C5)nc2c34)cc1` [Compound 19, 6-benzyl-4-(3,4-dihydroisoquinolin-2(1H)-yl)-2,6,7,8-tetrahydro-1,2,3,5,6-pentaazaacenaphthylene]: the inhibition at 10 µM is under 50% under setting [1]; under 50% under setting [2]; 50 to 79% under setting [3]; under 50% under setting [4]; 50 to 79% under setting [5]; under 50% under setting [6].
As for `c1ccc(CCNc2nc3c4c(n[nH]c4n2)CCN3)cc1` [Compound 128, N-(2-phenylethyl)-2,6,7,8-tetrahydro-1,2,3,5,6-pentaazaacenaphthylen-4-amine], the inhibition at 10 µM is over 79% under setting [1]; over 79% under setting [2]; over 79% under setting [3]; over 79% under setting [4]; over 79% under setting [5]; over 79% under setting [6].
As for `COc1ccc(CN2CCc3n[nH]c4nc(N5CCOCC5)nc2c34)cc1` [Compound 110, 6-(4-methoxybenzyl)-4-morpholin-4-yl-2,6,7,8-tetrahydro-1,2,3,5,6-pentaazaacenaphthylene], the inhibition at 10 µM is under 50% under setting [1]; under 50% under setting [2]; under 50% under setting [3]; under 50% under setting [4]; under 50% under setting [5]; under 50% under setting [6].
Turning to `c1ccc(CN2CCc3n[nH]c4nc(NCCc5ccccn5)nc2c34)cc1` [Compound 65, 6-benzyl-N-(2-pyridin-2-ylethyl)-2,6,7,8-tetrahydro-1,2,3,5,6-pentaazaacenaphthylen-4-amine], the inhibition at 10 µM was under 50% under setting [1]; under 50% under setting [2]; under 50% under setting [3]; under 50% under setting [4]; under 50% under setting [5]; under 50% under setting [6].
Take `CN(C(=O)C1CN(Cc2ccccc2)c2nc(NCc3ccccc3)nc3[nH]nc1c23)C1CCCCC1` (stereo not drawn) [Compound 239, 6-benzyl-4-(benzylamino)-N-cyclohexyl-N-methyl-2,6,7,8-tetrahydro-1,2,3,5,6-pentaazaacenaphthylene-8-carboxamide]: the inhibition at 10 µM by setting is: under setting [1], under 50%; under setting [2], under 50%; under setting [3], under 50%; under setting [4], under 50%; under setting [5], under 50%; under setting [6], under 50%.
For the compound `COc1ccc(CN2CCN(c3nc4c5c(n[nH]c5n3)CCN4Cc3ccccc3)CC2)cc1` [Compound 24, 6-benzyl-4-[4-(4-methoxybenzyl)piperazin-1-yl]-2,6,7,8-tetrahydro-1,2,3,5,6-pentaazaacenaphthylene], the inhibition at 10 µM was under 50% under setting [1]; under 50% under setting [2]; under 50% under setting [3]; under 50% under setting [4]; under 50% under setting [5]; under 50% under setting [6].
Take `COc1ccc(CN2CCc3n[nH]c4nc(N5CCN(c6ccncc6)CC5)nc2c34)cc1` [Compound 103, 6-(4-methoxybenzyl)-4-(4-pyridin-4-ylpiperazin-1-yl)-2,6,7,8-tetrahydro-1,2,3,5,6-pentaazaacenaphthylene]: the inhibition at 10 µM under setting [1] is over 79%; the inhibition at 10 µM under setting [2] was over 79%; the inhibition at 10 µM under setting [3] is over 79%; the inhibition at 10 µM under setting [4] was in the range of 50 to 79%; the inhibition at 10 µM under setting [5] was over 79%; the inhibition at 10 µM under setting [6] is over 79%.
For `COc1ccc(CN2CCc3n[nH]c4nc(Nc5ccccc5)nc2c34)cc1` [Compound 118, 6-(4-methoxybenzyl)-N-phenyl-2,6,7,8-tetrahydro-1,2,3,5,6-pentaazaacenaphthylen-4-amine], the inhibition at 10 µM is under 50% under setting [1]; under 50% under setting [2]; under 50% under setting [3]; under 50% under setting [4]; under 50% under setting [5]; under 50% under setting [6].
Regarding `COc1ccc(CN2CCc3n[nH]c4nc(N5CCN(Cc6ccccc6)CC5)nc2c34)cc1` [Compound 114, 4-(4-benzylpiperazin-1-yl)-6-(4-methoxybenzyl)-2,6,7,8-tetrahydro-1,2,3,5,6-pentaazaacenaphthylene], the inhibition at 10 µM reads like this: under setting [1], under 50%; under setting [2], under 50%; under setting [3], under 50%; under setting [4], under 50%; under setting [5], under 50%; under setting [6], under 50%.
